According to ChEMBL document CHEMBL5576082, “Minor Cannabinoids as Inhibitors of Skin Inflammation: Chemical Synthesis and Biological Evaluation” (J Nat Prod, 2024):
Calls of active or inactive are those of the source. No cut-off for these calls is given here.

How the values were obtained:
HaCaT [1] = assay: Cytotoxicity against human HaCaT cells assessed as reduction in cell viability at 5 uM after 24 hrs by MTT assay; type: toxicity, cell-based
HaCaT [2] = assay: Inhibition of TNF-alpha-induced NFkappaB (unknown origin) transcription in human HaCaT cells transiently transfected with NFkappaB-LUC at 5 uM after 6 hrs by luminescence based spectrophotometric assay; type: cell-based
HaCaT [3] = assay: Antiinflammatory activity against human HaCaT cells assessed as inhibition of TNF-alpha-induced IL-8 protein expression at 5 uM after 6 hrs by ELISA relative to control; type: functional
HaCaT [4] = assay: Antiinflammatory activity against human HaCaT cells assessed as inhibition of TNF-alpha-induced IL-8 protein expression after 6 hrs by ELISA; type: functional, cell-based
[5] = Inhibition of TNF-alpha-induced NFkappaB (unknown origin) transcription in human HaCaT cells transiently transfected with NFkappaB-LUC after 6 hrs by luminescence based spectrophotometric assay; type: cell-based

CCCc1cc(O)c(C/C=C(\C)CCC=C(C)C)c(O)c1
Activity (HaCaT [1]): Non-Toxic
inhibition (HaCaT [2]): Active
inhibition (HaCaT [3]): inactive

CCCCc1cc2c(c(O)c1C(=O)OC)CC[C@@](C)(CCC=C(C)C)O2
IC50 (HaCaT [4]): 1580 nM
IC50 [5]: 4230 nM
Activity (HaCaT [1]): Non-Toxic
inhibition (HaCaT [2]): Active
inhibition at 5 µM (HaCaT [3]): 100%

CCCCc1cc(O)c(C/C=C(/C)CCC=C(C)C)c(O)c1
IC50 (HaCaT [4]): 870 nM
IC50 [5]: 2800 nM
Activity (HaCaT [1]): Non-Toxic
inhibition (HaCaT [2]): 100%
inhibition at 5 µM (HaCaT [3]): 100%

CCCCc1cc(O)c2c(c1)O[C@](C)(CCC=C(C)C)CC2
IC50 (HaCaT [4]): 1060 nM
IC50 [5]: 3110 nM
Activity (HaCaT [1]): Non-Toxic
inhibition (HaCaT [2]): 100%
inhibition at 5 µM (HaCaT [3]): 100%

C=C(C)[C@@H]1CCC(C)=C[C@H]1c1c(O)cc(CCCCC)cc1O
inhibition (HaCaT [3]): inactive

CCCCc1cc2c3c(c1)O[C@@]1(C)CCC([C@@H]3C1)C(C)(C)O2 (some centres not stated)
Activity (HaCaT [1]): Non-Toxic
inhibition (HaCaT [2]): inactive
inhibition (HaCaT [3]): inactive

CCCc1cc2c3c(c1)O[C@@]1(C)CCC([C@@H]3C1)C(C)(C)O2 (some centres not stated)
Activity (HaCaT [1]): Non-Toxic
inhibition (HaCaT [2]): inactive
inhibition (HaCaT [3]): inactive

CCCCc1cc(O)c(C/C=C(\C)CCC=C(C)C)c(O)c1
IC50 (HaCaT [4]): 820 nM
IC50 [5]: 2360 nM
Activity (HaCaT [1]): Non-Toxic
inhibition (HaCaT [2]): 100%
inhibition at 5 µM (HaCaT [3]): 100%

CCCc1cc(O)c2c(c1)O[C@](C)(CCC=C(C)C)CC2
Activity (HaCaT [1]): Non-Toxic
inhibition (HaCaT [2]): Active
inhibition (HaCaT [3]): inactive

CCCCc1cc(O)c(C/C=C(\C)CCC=C(C)C)c(O)c1C(=O)OC
IC50 (HaCaT [4]): 530 nM
IC50 [5]: 600 nM
Activity (HaCaT [1]): Non-Toxic
inhibition (HaCaT [2]): 100%
inhibition at 5 µM (HaCaT [3]): 100%

CCCCCc1cc(O)c(C/C=C(\C)CCC=C(C)C)c(O)c1 [CANNABIGEROL]
IC50 (HaCaT [4]): > 5000 nM
IC50 [5]: 2510 nM
inhibition at 5 µM (HaCaT [3]): ~40%

CCCCc1cc2c(c(O)c1C(=O)O)CC[C@@](C)(CCC=C(C)C)O2
Activity (HaCaT [1]): Non-Toxic
inhibition (HaCaT [2]): Active
inhibition (HaCaT [3]): inactive

CCCc1cc(O)c(C/C=C(/C)CCC=C(C)C)c(O)c1
Activity (HaCaT [1]): Non-Toxic
inhibition (HaCaT [2]): Active
inhibition (HaCaT [3]): inactive
